Data: US9353089B2, “Compositions and methods for the treatment of malaria” (Saint Louis University, priority 2013, dated 2016)
Read-outs that look alike come from different tables or passages of the source. Marks after values point to notes of the source that are not given here.

How the values were obtained:
[1] = target: Plasmepsin (PM-4; Plm IV) (Plasmodium falciparum (isolate 3D7), UniProt Q8IM16); assay: Plasmepsin-4 enzyme inhibition assay; type: biochemical; conditions: Table 8
Experimental: Plasmepsin-2 (PM-2; Plm II) and Plasmepsin (PM-4; Plm IV) expression and purification was performed following the published protocols (Istvan E S and Goldberg D E, 2005). The final purified protein was activated by diluting the protein to 0.3 mg/mL in activating buffer (0.1 M citrate pH 4.5, 0.1% Tween-20, 50 mM dithiothreitol) and incubated at room temperature for 40 min, then the activated enzyme was diluted in assay buffer (50 mM sodium acetate pH 4.7, 0.01% Tween-20). The enzymatic inhibition reaction was performed in 384 well plates with a total volume of 20 μl. 10 μl of diluted PM-2 or PM-4 enzyme was added to the 384-well plate except blank wells (blank wells add 10 μL of assay buffer) and 20 nL of serials of diluted 1000× compounds were added to the wells with 520 Echo® Liquid Handling System (Labcyte Inc.). 10 μL PM-2 peptide substrate (AnaSpec, Cat#, 62050) with assay buffer was then added to final concentration of 20 μM to start the reaction. After incubation the reaction at room temperature for 60 min, the fluorescence intensity at Ex/Em=360 nm/535 nm was measured using EnVision multilabel plate reader (Perkin-Elmer). The IC50 values were obtained using Graph Pad Prism 4 and are reported in Tables 8 and 9 below as PM-2 IC50 values.

recombinant human BACE1 = recombinant human BACE1 (Homo sapiens, UniProt P56817); assay: β-Secretase (BACE1) enzyme inhibition FRET assay; type: biochemical
recombinant human BACE1, sequence (P56817 46-501 limits assumed): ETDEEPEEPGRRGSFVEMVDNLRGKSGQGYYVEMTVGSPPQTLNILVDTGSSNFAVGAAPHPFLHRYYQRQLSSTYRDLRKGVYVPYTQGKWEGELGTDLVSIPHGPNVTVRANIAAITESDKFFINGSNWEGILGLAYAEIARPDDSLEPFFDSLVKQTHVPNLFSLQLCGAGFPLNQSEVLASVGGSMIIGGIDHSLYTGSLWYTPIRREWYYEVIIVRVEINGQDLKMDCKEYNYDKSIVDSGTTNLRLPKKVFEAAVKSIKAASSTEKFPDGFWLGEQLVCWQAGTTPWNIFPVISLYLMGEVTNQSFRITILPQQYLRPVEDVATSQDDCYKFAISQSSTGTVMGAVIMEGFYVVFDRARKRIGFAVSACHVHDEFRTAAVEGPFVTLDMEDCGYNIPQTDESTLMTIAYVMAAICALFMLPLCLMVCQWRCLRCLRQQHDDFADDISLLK
Procedure, shortened: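 FRET cleavage by rhBACE1 with substrate at 20 μM final, 60 min at room temperature. Time-resolved fluorescence read at Ex/Em 360/460 nm. IC50 obtained by non-linear regression.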

[2] = RLM metabolic stability assay; type: in vitro ADME; conditions: pH 7.4, rat liver microsomes, read-out: RLM t1/2
Experimental: In this protocol, the metabolic stability of compounds at 1 μM was determined in Mouse Liver Microsome (MLM), rat liver microsomes (RLM) or human liver microsomes (HLM). […]. After incubation at 37° C. for a specific time period (0, 5, 10, 20 and 30 min), the reaction was terminated by the addition of 200 μL ice cold acetonitrile containing internal standard (100 ng/mL) after 100 μL aliquots of reaction mixture was removed. The quenched reaction mixtures were centrifuged at 3200 rpm for 5 min, and 100 μL of the supernatant were transferred to 96-well deep plate. The samples in 96 well plate were analyzed by LC-MS/MS using an Applied Biosystems-Sciex model API 3000 mass spectrometer. The data were analyzed using the following equations. […]

[3] = target: recombinant human Cathepsin E (Homo sapiens (Human), UniProt P14091); assay: Cathepsin E enzyme inhibition FRET assay; type: biochemical; conditions: Table 8; read-out: CatE IC50
recombinant human Cathepsin E, sequence (P14091 54-396): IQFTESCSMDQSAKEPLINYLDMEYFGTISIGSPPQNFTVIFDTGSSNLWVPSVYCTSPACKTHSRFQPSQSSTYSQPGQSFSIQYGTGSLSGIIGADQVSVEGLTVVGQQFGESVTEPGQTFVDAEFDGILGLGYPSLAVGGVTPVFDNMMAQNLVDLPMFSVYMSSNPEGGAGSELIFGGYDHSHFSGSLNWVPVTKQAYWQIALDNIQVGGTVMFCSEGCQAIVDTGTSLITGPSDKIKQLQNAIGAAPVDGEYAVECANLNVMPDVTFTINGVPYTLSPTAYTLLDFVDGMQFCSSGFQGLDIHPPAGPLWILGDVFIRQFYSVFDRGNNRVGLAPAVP
Experimental: The enzymatic inhibition activity assays were determined using the fluorescence resonance energy transfer (FRET) assay. The assays were performed in a 384-well plate format. […] The concentration of Cathepsin D was 20 ng/μL, and 1 ng/μL of Cathepsin E was used. CatD and CatE were activated by incubation in assay buffer (0.1 M NaOAc, 0.2 M NaCl, pH 3.5) at room temperature for 30 min. Subsequently, the rhBACE-1 substrate (R&D Systems, catalog# ES004), the Cathepsin D and Cathepsin E substrate (R&D Systems, Catalog # ES001) were added accordingly to final concentration 20 μM to initiate the reaction. After 60 min incubation at room temperature, the time-resolved fluorescence at Ex/Em=360 nm/460 nm was measured on an EnVision multilabel plate reader (Perkin-Elmer). The analytical software, GraphPad Prism 5.0 (GraphPad Software, Inc., USA) was used to generate IC50 values via non-linear regression analysis, which are reported in Tables 8-13 below as BACE1 IC50 values.

[4] = Plasma compound concentration in the in vivo efficacy study; conditions: mice; for concentration at 24 h / concentration at 1 h / concentration at 6 h: NIH, mouse, plasma; for concentration at 24 h: 24 h post last dose on Day 3; for concentration at 1 h: 1 h post last dose on Day 3; for concentration at 6 h: 6 h post last dose on Day 3
HepG2 cells = assay: HepG2 cytotoxicity assay; type: cell-based; conditions: Homo sapiens, 72 hours
Experimental: HepG2 cells (ATCC Cat. No. HB-8065) were maintained in DMEM supplemented with 10% fetal bovine serum and L-glutamine. Cells were grown at 37° C. and 5% CO2 on flasks coated with poly-d-lysine. To assess compounds for potential cytotoxic properties cells were plated at 10,000 cells per well on 96-well poly-d-lysine plates at 10,000 cells per well. HepG2 cells were allowed to adhere for at least 4 hours prior to application of test compounds. Cells were incubated with test compounds for 72 hours before measuring cellular viability. Cellular viability was measured using PrestoBlue® Cell Viability Reagent (Life Technologies). Briefly, 11 μL of 10× PrestoBlue reagent was added to 100 μl in each assay well. Cells were incubated at 37° C. and 5% CO2 for 30 minutes prior to reading on Tecan Safire2, excitation at 560 nm, 10 nm bandwidth and emission at 590 nm, 10 nm bandwidth. GraphPad Prism 5.0 (GraphPad Software, Inc., USA) was used to generate IC50 values via non-linear regression analysis.

[5] = tested on: Plasmodium chabaudi ASS and ASCQ strains; assay: In vivo antimalarial efficacy 4-day suppressive test; conditions: NIH mice, Day 4 postinoculation
Experimental: Briefly, NIH mice (n=8 per group) were inoculated i.p. with 2×10^7 parasitized (Plasmodium chabaudi ASS or ASCQ) red blood cells. […] Groups (n=6) including a vehicle control and chloroquine (CQ) as a reference drug were included. Parasitemia levels were determined on the day following the last treatment (Day 4).

[6] = 100 mpk orally once daily for four days

Plasmepsin (PM-4; Plm IV), sequence (Q8IM16 122-449 limits assumed): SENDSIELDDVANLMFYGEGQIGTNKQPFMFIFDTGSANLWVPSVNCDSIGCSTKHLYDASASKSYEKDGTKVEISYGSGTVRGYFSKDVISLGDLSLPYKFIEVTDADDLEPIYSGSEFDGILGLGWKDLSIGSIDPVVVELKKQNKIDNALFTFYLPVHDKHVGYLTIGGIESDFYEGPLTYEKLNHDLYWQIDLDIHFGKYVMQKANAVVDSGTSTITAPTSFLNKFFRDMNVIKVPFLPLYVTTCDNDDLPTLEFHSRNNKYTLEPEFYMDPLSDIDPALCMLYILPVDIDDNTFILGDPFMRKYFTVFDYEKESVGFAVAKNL

| Compound | IC50 [1] | IC50 (recombinant human BACE1; Table 8, read-out: BACE IC50) | IC50 (recombinant human BACE1; Table 13, read-out: BACE1 IC50) | half-life at 1 μM [2] | IC50 [3] | concentration at 24 h ([4]; 110 mg/kg, 110 mpk oral) | Plasma [compound] (ng/mL), determined at 30 min post dose ([4]; 110 mpk oral, 30 min post last dose on Day 3) | IC50 (HepG2 cells) | % Inhibition of parasitemia ([5]; 110 mpk orally once daily for four days) | concentration at 1 h ([4]; 100 mg/kg, 100 mpk oral) | concentration at 6 h ([4]; 100 mg/kg, 100 mpk oral) | concentration at 24 h ([4]; 100 mg/kg, 100 mpk oral) | % Inhibition of parasitemia [5, 6] |
| --- | --- | --- | --- | --- | --- | --- | --- | --- | --- | --- | --- | --- | --- |
| COc1ccc(C2(c3ccc(OC)cc3)NC(=N)N(C3CCOCC3)C2=O)cc1 [Example 176, 2-imino-5,5-bis(4-methoxyphenyl)-3-(oxan-4-yl)-imidazolidin-4-one] | 18 nM | ~10000 nM | ~10100 nM | 83 min | 511 nM | 29 ng/mL | 4140^e ng/mL | > 50000 nM | 63% | – | – | – | – |
| COc1ccc(C2(c3ccc(OC)cc3)NC(=N)N(C3CCN(C(=O)OC(C)(C)C)CC3)C2=O)cc1 [Example 206, tert-butyl 4-[2-imino-4,4-bis(4-methoxyphenyl)-5-oxoimidazolidin-1-yl]piperidine-1-carboxylate] | 10 nM | 6010 nM | – | 14 min | 233 nM | – | – | 8000 nM | – | 2520 ng/mL | 2190 ng/mL | 7 ng/mL | 73% |
| COc1ccc(C2(c3ccc(OC)cc3)NC(=N)N(CC3CCOCC3)C2=O)cc1 [Example 275, 2-imino-5,5-bis(4-methoxyphenyl)-3-(oxan-4-ylmethyl)imidazolidin-4-one] | 59 nM | 2070 nM | 2070 nM | 35 min | 841 nM | – | – | 30000 nM | – | 10400 ng/mL | 3030 ng/mL | 123 ng/mL | 41% |
